Data reported in article PMC10287695, “Non-covalent inhibitors of thioredoxin glutathione reductase with schistosomicidal activity in vivo” (Nature Communications, 2023).
“And” between values parts separate entries of the source, which are not always exact repeats. Equal entries are not always repeated. Where two headings read alike, the source gives them in different places.

Experiments:
[1] = test system: TGR in newly transformed schistosomula (NTS); experiment: TGR inhibition in NTS with TRFS-Green fluorescent probe; assay type: cell-based, S. mansoni; conditions: for TRFS-Green fluorescence in NTS: 2 h with inhibitor (30 µM; AF 3 µM) then TRFS-Green 10 µM; for production of green fluorescent dye in TRFS-green assay: compound at 5 µM
Protocol: TGR inhibition in NTS was assessed using a fluorescent probe TRFS-Green (Medchemexpress)[43]. NTS prepared as previously described and cultured in M199 supplemented with 5.5 mM D-glucose, penicillin-streptomycin and 5% heat inactivated fetal bovine serum were incubated at 37 °C in a clear bottom flat well plate in a 5% CO2 incubator overnight. […] NTS were further treated with TRFS-Green (10 µM) for additional 4 h and rinsed with M199 medium to remove residual TRFS-Green. Fluorescence images were obtained using Keyence BZ-X800. The quantification of fluorescence intensity upon the uptake of TRFS-Green by NTS was performed by a fluorescent microplate imager (BioTek Cytation3) (excitation, 438 nm; emission, 538 nm) hourly for 5 h and after 24 h.

TGR = molecular target: T1, TGR (Schistosoma mansoni, UniProt Q962Y6); experiment: Time dependence of inhibition; assay type: biochemical; parameters: avg % inhib, 0.5 hr / avg % inhib, 1 hr / avg % inhib, 2 hr / avg % inhib, 3 hr / avg % inhib, 6 hr / avg % inhib, 24 hr: tested at 50 µM; conditions: for rate, 0.5 hr / avg % inhib, 0.5 hr / % inhib, 0.5 hr / rate, 1 hr / avg % inhib, 1 hr / % inhib, 1 hr / rate, 2 hr / avg % inhib, 2 hr / % inhib, 2 hr / rate, 3 hr / avg % inhib, 3 hr / % inhib, 3 hr / rate, 6 hr / avg % inhib, 6 hr / % inhib, 6 hr / rate, 24 hr / avg % inhib, 24 hr / % inhib, 24 hr: panel d Time Dependence; for avg % inhib, 0.5 hr / avg % inhib, 1 hr / avg % inhib, 2 hr / avg % inhib, 3 hr / avg % inhib, 6 hr / avg % inhib, 24 hr: average
T1 construct: made in house
T1 sequence (Q962Y6 1-598): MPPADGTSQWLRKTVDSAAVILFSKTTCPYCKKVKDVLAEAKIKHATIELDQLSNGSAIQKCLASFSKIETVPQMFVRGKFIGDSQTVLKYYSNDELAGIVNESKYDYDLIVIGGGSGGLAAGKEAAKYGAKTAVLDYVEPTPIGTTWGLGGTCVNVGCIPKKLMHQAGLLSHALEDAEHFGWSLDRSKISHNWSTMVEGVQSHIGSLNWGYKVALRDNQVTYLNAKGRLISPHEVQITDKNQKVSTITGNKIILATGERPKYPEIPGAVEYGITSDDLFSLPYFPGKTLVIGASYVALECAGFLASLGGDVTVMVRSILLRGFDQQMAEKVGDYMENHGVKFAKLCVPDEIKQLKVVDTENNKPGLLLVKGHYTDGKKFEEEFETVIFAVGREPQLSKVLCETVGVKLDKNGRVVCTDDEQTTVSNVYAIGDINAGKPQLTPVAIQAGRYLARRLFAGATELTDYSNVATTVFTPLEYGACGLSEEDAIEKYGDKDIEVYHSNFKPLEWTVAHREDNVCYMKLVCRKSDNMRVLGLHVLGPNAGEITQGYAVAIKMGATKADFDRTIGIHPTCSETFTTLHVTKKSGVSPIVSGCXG
Protocol: TGR was incubated at room temperature (up to 6 h) and at 4 °C for 6 to 24 h with 50 µM inhibitor and 100 µM NADPH for the indicated times. Then DTNB (3 mM) and NADPH (100 µM) were added, and the reaction was monitored at A412 for 5 min. The assay was done in triplicate.

PfTrxR = molecular target: T2, PfTrxR (Plasmodium falciparum, UniProt Q25861); experiment: P. falciparum TrxR enzyme inhibition; assay type: biochemical; conditions: for PfTrxR % inhibition at 50 µM: the highest concentration tested
T2 construct: 6-His (N); made in house; host or cells: E. coli BL21 (DE3)
T2 sequence (Q25861 1-541): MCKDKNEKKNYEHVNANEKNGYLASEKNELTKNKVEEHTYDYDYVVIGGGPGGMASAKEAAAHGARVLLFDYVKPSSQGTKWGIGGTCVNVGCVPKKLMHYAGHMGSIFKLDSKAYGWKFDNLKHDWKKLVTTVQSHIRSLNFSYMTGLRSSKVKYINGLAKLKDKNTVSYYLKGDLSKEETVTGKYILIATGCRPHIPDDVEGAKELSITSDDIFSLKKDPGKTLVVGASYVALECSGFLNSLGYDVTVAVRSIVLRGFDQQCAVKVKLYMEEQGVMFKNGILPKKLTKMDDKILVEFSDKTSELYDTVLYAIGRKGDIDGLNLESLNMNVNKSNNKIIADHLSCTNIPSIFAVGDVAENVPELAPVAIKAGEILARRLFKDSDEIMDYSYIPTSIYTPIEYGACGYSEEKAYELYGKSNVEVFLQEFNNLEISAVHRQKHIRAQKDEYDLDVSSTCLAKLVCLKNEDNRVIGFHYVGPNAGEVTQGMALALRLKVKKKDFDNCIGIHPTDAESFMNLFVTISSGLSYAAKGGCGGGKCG
Protocol: Recombinant TGR, human TrxR1, B. malayi (Bm)TrxR and human GR proteins were expressed and purified as described[20],[69],[79]. The codon optimized sequence for P. falciparum (PfTrxR, https://www.ncbi.nlm.nih.gov/protein/CAA60574.1/) with an N-terminal 6-His tag was synthesized and inserted into pET15b (GenScript) and expressed in BL21 (DE3) cells and purified as described for human GR[20]. TGR and TrxR enzyme inhibition assays were performed in triplicate at 25 °C as described[20] in 0.1 M potassium phosphate (pH 7.4), 10 mM EDTA, 100 µM NADPH and 0.01% Tween-20. TGR, human TrxR1 and BmTrxR (all at 4 nM) and PfTrxR (50 nM) were preincubated with the compounds for 15 min. The reaction was started with addition of an equal volume of DTNB (6 mM) and NADPH (100 µM) and the increase in A412 during the first 3 min was recorded. […] The reaction was preincubated for 15 min. Activity was initiated with the addition of 1 mM GSSG and 100 μM NADPH and initial rates of NADPH oxidation were monitored at 340 nm. The reactions were done in triplicate. The IC50 was calculated in GraphPad Prism.

[2] = read-out: PfTrxR % inhibition at 50 µM

Row | Structure (SMILES) | TRFS-Green fluorescence in NTS [1] | rate, 0.5 hr (TGR) | avg % inhib, 0.5 hr (TGR) [%] | % inhib, 0.5 hr (TGR; replicates) | rate, 1 hr (TGR) | avg % inhib, 1 hr (TGR) [%] | % inhib, 1 hr (TGR; replicates) | rate, 2 hr (TGR) | avg % inhib, 2 hr (TGR) [%] | % inhib, 2 hr (TGR; replicates) | rate, 3 hr (TGR) | avg % inhib, 3 hr (TGR) [%] | % inhib, 3 hr (TGR; replicates) | rate, 6 hr (TGR) | avg % inhib, 6 hr (TGR) [%] | % inhib, 6 hr (TGR; replicates) | rate, 24 hr (TGR) | avg % inhib, 24 hr (TGR) [%] | % inhib, 24 hr (TGR; replicates) | PfTrxR % inhibition at 50 µM (PfTrxR) | further results
1 | CC(=O)OC[C@H]1O[C@@H]([S-])[C@H](OC(C)=O)[C@@H](OC(C)=O)[C@@H]1OC(C)=O.CCP(CC)CC.[Au+] [AF, auranofin, reference compound] | significant decreases in fluorescence | – | – | – | – | – | – | – | – | – | – | – | – | – | – | – | – | – | – | – | –
2 | Cc1oc(-c2ccc3c(c2)OCO3)nc1CN[C@@H]1C[C@@H]2C[C@H]([C@H]1C)C2(C)C [Compound 1] | significant decreases in fluorescence | 0.0552 and 0.05671 and 0.05782 | -1.077 | 0.01811% and -0.5318% and -2.718% | 0.04988 and 0.05076 and 0.05122 | 1.283 | 2.919% and -0.8544% and 1.783% | 0.046 and 0.04511 and 0.04817 | 0.9089 | -0.9879% and 3.652% and 0.06224% | 0.03818 and 0.03843 and 0.03937 | 4.332 | 4.359% and 4.498% and 4.139% | 0.02323 and 0.02106 and 0.02443 | 12.8202 | 11.8406% and 18.1182% and 8.502% | 0.0142 and 0.01351 and 0.01414 | 28.9728 | 24.2263% and 31.8365% and 30.8557% | n.i. | inhibition at 10 µM (PfTrxR; PfTrxR, 10 µM compound, mean of 3 replicates, read-out: % inhibition): -2.06%; inhibition at 25 µM (PfTrxR; PfTrxR, 25 µM compound, mean of 3 replicates, read-out: % inhibition): -2.16%; inhibition at 50 µM (PfTrxR; PfTrxR, 50 µM compound, mean of 3 replicates, read-out: % inhibition): -1.29%; production of green fluorescent dye in TRFS-green assay [1]: abolished
3 | CCc1ccccc1-c1nc(CN[C@@H]2C[C@@H]3C[C@H]([C@H]2C)C3(C)C)c(C)o1 [Compound 2] | significant decreases in fluorescence | – | – | – | – | – | – | – | – | – | – | – | – | – | – | – | – | – | – | n.i. | inhibition at 10 µM (PfTrxR): -8.06%; inhibition at 25 µM (PfTrxR): -45.1%; inhibition at 50 µM (PfTrxR): -32.7%; production of green fluorescent dye in TRFS-green assay [1]: abolished
4 | Cc1oc(-c2ccccc2)nc1CN[C@@H]1C[C@@H]2C[C@H]([C@H]1C)C2(C)C [Compound 3] | – | 0.04131 and 0.04323 and 0.04147 | 24.9564 | 25.1766% and 23.3647% and 26.3279% | 0.03461 and 0.03399 and 0.03516 | 32.5613 | 32.6392% and 32.4657% and 32.5791% | 0.02942 and 0.0272 and 0.02813 | 39.6519 | 35.4116% and 41.9052% and 41.639% | 0.02162 and 0.0222 and 0.02273 | 45.1094 | 45.8417% and 44.831% and 44.6555% | 0.01203 and 0.009487 and 0.01329 | 55.8948 | 54.3454% and 63.1143% and 50.2247% | 0.008207 and 0.008188 and 0.0092 | 56.6355 | 56.206% and 58.6882% and 55.0122% | – | inhibition at 50 µM (PfTrxR; [2]): 12%
5 | Cc1oc(-c2ccc3ccccc3c2)nc1CNC1CCCCCC1 [Compound 5] | – | 0.06403 and 0.06491 and 0.06611 | 19.3871 | 19.4895% and 20.5216% and 18.1503% | 0.05507 and 0.05598 and 0.05641 | 24.7276 | 25.2173% and 23.9092% and 25.0565% | 0.04485 and 0.04477 and 0.04629 | 32.9849 | 32.4141% and 34.3548% and 32.1858% | 0.03515 and 0.03538 and 0.0359 | 39.3918 | 39.6774% and 39.4903% and 39.0078% | 0.02164 and 0.02197 and 0.02345 | 53.9938 | 54.1525% and 54.5887% and 53.2403% | 0.00977 and 0.01005 and 0.01035 | 73.1913 | 73.884% and 73.0491% and 72.6408% | n.i. | inhibition at 10 µM (PfTrxR): -1.11%; inhibition at 25 µM (PfTrxR): -0.0146%; inhibition at 50 µM (PfTrxR): -1.37%
6 | C#CCN(Cc1nc(-c2ccccc2)oc1C)[C@@H]1C[C@@H]2C[C@H]([C@H]1C)C2(C)C [Compound 6] | – | – | – | – | – | – | – | – | – | – | – | – | – | – | – | – | – | – | – | – | TGR activity relative to dmso, time 0 (TGR; panel c, time 0 (time unit not given), replicates): 3.265 and 0.9012; TGR activity relative to dmso, time 5 (TGR; panel c, time 5 (time unit not given), replicates): 0.7526 and -0.07048 and -0.5247; TGR activity relative to dmso, time 10 (TGR; panel c, time 10 (time unit not given), replicates): 0.5708 and -0.4368 and -0.3757; TGR activity relative to dmso, time 15 (TGR; panel c, time 15 (time unit not given), replicates): 0.7215 and 0.1963 and -0.1983; TGR activity relative to dmso, time 30 (TGR; panel c, time 30 (time unit not given), replicates): 2.551 and 1.111 and 1.493
7 | CC1C(NCc2cn(C3OCC(O)C(O)C3O)c3ccccc23)CC2CC1C2(C)C (stereo not shown) [Compound 9] | – | – | – | – | – | – | – | – | – | – | – | – | – | – | – | – | – | – | – | – | inhibition at 10 µM (PfTrxR): 6.78%; inhibition at 25 µM (PfTrxR): 8.79%; inhibition at 50 µM (PfTrxR): 16.2%; inhibition at 50 µM (PfTrxR; [2]): 16%
8 | C[C@@H]1[C@H]2C[C@@H](C[C@H]1NCc1nc3ccccc3n1C)C2(C)C [Compound 12] | negligible effects | – | – | – | – | – | – | – | – | – | – | – | – | – | – | – | – | – | – | – | –
